Target: T1, M2 receptor (Homo sapiens, UniProt P08172, DEL233-374)
T1 construct: FLAG (N); expressed in transfected cells
T1 sequence (P08172 with tags, fused parts or gaps DEL233-374): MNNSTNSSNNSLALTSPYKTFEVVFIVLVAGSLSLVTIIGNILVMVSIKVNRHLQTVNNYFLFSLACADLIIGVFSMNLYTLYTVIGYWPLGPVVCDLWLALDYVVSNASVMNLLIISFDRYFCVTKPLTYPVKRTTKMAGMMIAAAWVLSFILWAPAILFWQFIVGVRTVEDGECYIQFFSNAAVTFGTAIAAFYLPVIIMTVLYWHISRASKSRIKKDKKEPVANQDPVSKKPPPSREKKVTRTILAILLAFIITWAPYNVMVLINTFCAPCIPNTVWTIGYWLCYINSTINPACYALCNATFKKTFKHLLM
Assay: Assay of the invention: M2-LgBiT fusion and Nb9-8-SmBiT fusion
Assay type: cell-based

## Cc1c(Cl)c(OCC(=O)N2CCN(C)CC2)nc2sc(C(=O)NC3CC3)c(N)c12 [LY2119620]
LY2119620 itself, data not shown
  agonistic effect on the M2 receptor: some agonistic effect
Iperoxo DRC with and without LY2119620
  effect on the dose-response curve of iperoxo: effect as a positive allosteric modulator

Reference: patent publication US20220244254A1, “Screening Methods and Assays for Use with Transmembrane Proteins, in Particular with GPCRs” (CONFO THERAPEUTICS N.V., priority 2019, published 2022)
